This is an account of results in patent US7910579B2, “Benzoxazole derivatives” (Tohoku University, priority 2006, dated 2011).

Each structure is given as a SMILES string. Read-outs that look alike come from different tables or passages of the source.

The subject of data set [1] is histidine-requiring Salmonella typhimurium TA100 and TA98 strains. To be noted: cited from earlier work.
Data set [2] shares this test system. In words: Mutagenicity Test (reverse mutation test). The format is cell-based. To be noted: for Relative Activity in the presence of S9Mix / Relative Activity in the absence of S9Mix: reverse mutation test. The procedure: In view of their use, it is desirable that the compounds of the invention have no mutagenicity or have little mutagenicity to a level causing no problem. For investigating the gene mutagenesis of the compounds of the invention, herein carried out was a reverse mutation test with histidine-requiring Salmonella typhimurium TA100 and TA98 strains. Two tests were carried out. One is a test for dose determination test; and the other is for mutagenicity.
The test methods and the mutagenicity of the compounds of the invention are mentioned below. In the dose determination test, six doses of 0.160, 0.800, 4.00, 20.0, 100 and 500 μg/plate (common ratio 5) were tried.
As a result of the dose determination test, when the mutagenicity of the test compound was admitted, then the actual test for mutagenicity was carried out, using the dose capable of giving an accurate dose-reaction curve. When no mutagenicity of the test compound was admitted in the dose determination test and when the growth inhibition of the test cells was admitted therein, then the dose to present the growth inhibition was taken as the maximum dose; and when the growth inhibition was not admitted, then a dose of 5000 μg/plate was taken as the maximum dose. With that, the actual test for mutagenicity was carried out on the level of 6 doses (common ratio 2).
First, a test compound was dissolved or suspended in DMSO, then diluted in order to prepare test compound liquids having a varying concentration.
100 μl of a test compound liquid or a negative control (DMSO) solution was put into a sterilized test tube. Then, for the case in the absence of a metabolic activation system (−S9mix), 500 μl of 0.1 mol/liter sodium-phosphate buffer (pH 7.4) was added to it; and for the case in the presence of a metabolic activation system (+S9mix), 500 μl of S9mix was added to it.
Next, 100 μl of the test strain suspension that had been cultivated with shaking at 37° C. for 8 hours was added to it, and preincubated in a shaking thermostat at 37° C. for 20 minutes. After shaken, 2 ml of top agar was added to it, and the contents were mixed.
Next, the mixture was poured onto a minimal glucose agar plate medium (plate) and spread uniformly thereon, then the top agar was solidified, and the plate was transferred into a thermostat and incubated at 37° C. for 48 hours.
Then, the number of the colonies grown through reverse mutation was counted.
For counting it, […]. After area correction and miss-counting correction, the number of the colonies was computed. When the colony analyzer could not be used owing to the deposition of the test compound or the cell growth inhibition, then the number of the colonies was counted with the naked eye.
In case where the number of the colonies through reverse mutation increased two times or more that of the negative control and where the dose dependency or the reproducibility of the increase was admitted, then the tested sample was decided as positive. When the sample was is decided as positive, then the relative activity that indicates the relative comparative value of the intensity of the mutagenicity of the test compound was obtained according to the following formula: Relative Activity={(number of colonies per plate having the concentration)−(number of colonies per negative control plate)}/the value of concentration (mg/plate).

The nature of data set [3]: Brain Permeability Test Through HPLC. To be noted: mice, 2 minutes after intravenous administration. It counts as in vivo. The procedure: A compound of the invention was intravenously administered to mice, and tested for its in-vivo brain permeability in the mice.
(1) Slc:ICR mice (by Nippon SLC) (body weight, 30 to 40 g; n=3) were used.
(2) A test compound was dissolved in a mixture of 5% Tween 80-5% ethyl alcohol-5% 1 N HCl-physiological saline water, and injected into the test mouse via its tail vein. Two minutes after the administration, the blood was collected from the test mouse under ether anesthesia via its abdominal aorta using a heparin-steeped syringe, and the brain material was collected from it.
(3) After collected, the blood was centrifuged at 4° C. and 14,000 rpm for 10 minutes, and the supernatant was stored at −80° C. as plasma. After collected, the brain material (including the cerebellum) was stored at −80° C.
(4) 0.3 ml of acetonitrile was added to 0.1 ml of the plasma, then vortexed, and centrifuged at 4° C. and under 10,000 G for 5 minutes. After centrifuged, 0.2 ml of the resulting supernatant was transferred into Mini-Uniprep (Whatman), then 0.2 ml of 20 mM phosphate buffer was added to it and filtered. 0.2 ml of the resulting filtrate was analyzed through HPLC (Shiseido Nanospace SI-2; pump, 3001; UV-VIS detector, 3002; column thermostat, 3004; fluorescence detector, 3013).
(5) 2 ml of methanol was added to the brain, homogenized, and centrifuged at 4° C. and 3000 or 4000 rpm for 10 minutes. After centrifuged, 500 μl of the resulting supernatant was diluted 10-fold with 20 mM phosphate buffer. (i) 2 to 3 ml of acetonitrile, (ii) 2 to 5 ml of methanol and (iii) 4 to 6 ml of ultra-pure water were led through a cartridge for solid-phase extraction (J. T. Baker Speedisk) in that order, and the 10-fold diluted supernatant solution was led through it. Via an empty syringe, air was applied to the cartridge for solid-phase extraction, two or three times to remove water, and then this was eluted with about 500 μl of acetonitrile or methanol, and the eluate was diluted 2-fold with 20 mM phosphate buffer. 0.2 ml of the resulting solution was analyzed through HPLC.
(6) The test compound content in the plasma and in the brain was determined relative to the dose of the compound (% ID (injected dose)/g or ml).

The next data set can be described thus: Acute Toxicity Test. To be noted: Crj:CD1 male mice, tail vein, observed for 7 days. The format is in vivo. The protocol: The compounds of the invention were tested for their acute toxicity through intravenous administration thereof to mice. Four Crj:CD1 male mice formed one test group, and some test groups of those mice were used (the mean body weight of the mice of each group was from 31 to 32 g). A test compound was dissolved in a mixture of 1 N HCl, polyethylene glycol-400 and distilled water, or dissolved in DMSO, and then diluted with distilled water. This was administered to each mouse via its tail vein.

The next data set has as its target T1, Amyloid β protein 1-40 (Homo sapiens, UniProt P05067).
T1 construct: Amyloid β protein 1-40 (bought from Peptide Laboratory); purchased Peptide Laboratory
The data set can be described thus: Fluorescence Congo Red Method. It counts as binding. To be noted: 1 h, compound 10 μM, amyloid β protein 5 μM. The protocol: Next described is a screening method for the compounds of the invention. Some of the compounds of the invention could not be screened according to a Thioflavin T method, since their fluorescence wavelength overlaps with that of Thioflavin T. For such compounds, the following novel screening method was introduced. (1) Amyloid β protein 1-40 (bought from Peptide Laboratory) was dissolved in a phosphate buffer (pH 7.4) and left at 37° C. for 4 days. (2) 50 μl of Congo red dissolved in the buffer was applied to a 96-well microplate (final concentration, 0.1, 0.3, 1 μM). (3) 100 μl of amyloid β protein was added to it (final concentration 5 μM), and left as such for 30 minutes. (4) 100 μl of a test compound dissolved in the buffer was added to it (final concentration, 10 μM, and left as such for 60 minutes. (5) Using a fluorescence microplate reader (Spectra Max 190 by Molecular Device), the sample was analyzed at the optimum exciting wavelength and the test wavelength that had been previously determined. (6) The fluorescence intensity in the presence of the test compound, amyloid β protein and Congo red is represented by A; that in the presence of the test compound and Congo red is by B; that in the presence of the test compound and amyloid β protein is by C; and that in the presence of only the test compound is by D. The β structure recognition of the test compound is computed according to the following formula: β structure recognition (%) of test compound={(A−B)/(C−D)}×100. (7) It may be said that the test compound having a higher β structure recognition percentage may have higher binding specificity to amyloid β protein.

[4] abbreviates: Congo red 0.1 μM, read-out: Binding Percentage of Compound in the presence of 0.1 μM CR.
Setting [5] is: Congo red 0.3 μM, read-out: Binding Percentage of Compound in the presence of 0.3 μM CR.
Where [6] appears, read: Congo red 1 μM, read-out: Binding Percentage of Compound in the presence of 1 μM CR.

T1 sequence (P05067 672-711): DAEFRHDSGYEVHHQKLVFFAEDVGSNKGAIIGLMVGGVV

As to `CC(=C(C#N)C#N)c1ccc2cc(N(C)CCF)ccc2c1` [FDDNP], in data set [1], the “Relative Activity in the absence of S9Mix” value is 3,564,960 and the “Relative Activity in the presence of S9Mix” value is reported as “minus”.
For the compound `OCC(CF)Oc1ccc2nc(/C=C/c3cnc(N4CCCCC4)s3)oc2c1` (centres unmarked) [THK-713], in data set [2] (irrespective of the absence or presence of S9mix), the “Relative activity (mutagenicity)” value was “minus”. Moreover, in data set [2], the “Relative Activity in the presence of S9Mix” value is listed as “minus” and the “Relative Activity in the absence of S9Mix” value is given as “minus”. In addition, in data set [3], the “Brain Permeability: Brain” value was 5.9 % ID/g or ml and the “Brain Permeability: Plasma” value is 3.29 % ID/g or ml. In addition, the “Maximum Permissible Dose (mg/kg, intravenous administration)” value in the data set “Acute Toxicity Test” was “≧10 mg/kg”. In addition, on Amyloid β protein 1-40 (setting [4]), the activity at 10 µM turned out to be 58.2%. The activity at 10 µM on Amyloid β protein 1-40 (setting [5]) is 21.2%. Also, at Amyloid β protein 1-40 (setting [6]), the activity at 10 µM is 3%.
With `CN1CCN(c2ncc(/C=C/c3nc4ccc(OC(CO)CF)cc4o3)s2)CC1` (centres unmarked) [THK-707, (E)-6-[(1-fluoromethyl-2-hydroxy)ethoxy]-2-[2-[2-(4-methylpiperazin-1-yl)thiazol-5-yl]ethenyl]benzoxazole], the “Relative activity (mutagenicity)” value in data set [2] (in the presence of S9mix) is listed as “weak”. For the same compound, the “Relative Activity in the presence of S9Mix” value in data set [2] is recorded as “minus”. Also, the “Relative Activity in the absence of S9Mix” value in data set [2] was 264. Further, in data set [3], the “Brain Permeability: Brain” value is listed as 4.4 % ID/g or ml. Besides, the “Brain Permeability: Plasma” value in data set [3] is listed as 0.58 % ID/g or ml. Moreover, the “Maximum Permissible Dose (mg/kg, intravenous administration)” value in “Acute Toxicity Test” is “≧10 mg/kg”. The activity at 10 µM came to 66.8% on Amyloid β protein 1-40 (setting [4]), 36.4% on Amyloid β protein 1-40 (setting [5]) and 29.7% on Amyloid β protein 1-40 (setting [6]).
As to `CN(C)c1ccc(-c2cn3cc(I)ccc3n2)cc1` [IMPY], the “Relative activity (mutagenicity)” value in data set [1] (in the presence of S9mix, literature compounds) is recorded as “extremely high”. The “Relative Activity in the presence of S9Mix” value in data set [1] (reverse mutation test, +S9mix, data from PCT/JP03/07183 (WO03/106439)) is on record as “minus”. Besides, the “Relative Activity in the absence of S9Mix” value in data set [1] (reverse mutation test, -S9mix, data from PCT/JP03/07183 (WO03/106439)) is reported as 3,326,100.
